Measurements as given in US10292992B2, “Selective high-affinity polydentate ligands and methods of making such” (LAWRENCE LIVERMORE NATIONAL SECURITY, LLC, priority 2008, dated 2019).
Entries after “also recorded” stand apart in the source; their conditions may differ.

Experiments:
Raji cells = assay: 3-D confocal microscopy, Raji cells; format: cell-based, human; conditions: biotinylated reagent, 1 hr, 10 μM SHAL or 10 nM chLym-1
Experimental: SHAL binding and internalization by Raji and Jurkat's cells was assessed using the method described previously by O'Donnell et al. (O'Donnell et al. (1998) Prostate 37:91-97). Experiments were conducted comparing the binding of (DvLPBaPPP)2LLDo (the parent SHAL), its hexa-arginine analog (DvLPBaPPP)2LArg6AcLLDo, and chimeric Lym-1 (chLym-1) to Raji cells. All steps were performed at 20° C., unless indicated.
Four million Raji cells (>92% viability) in log phase growth were pelleted at 300×g, washed, and blocked for 30 min in 1 ml of 1% fraction V BSA in PBS, with constant rotation. Cells were then incubated 1 hr, at 1 million per 250 μl, with either 1% BSA in PBS or a biotinylated primary reagent: 10 nM chLym-1, 10 μM parent SHAL, or 10 μM hexa-arginine SHAL. After four washes (two in 1% BSA in PBS, two in PBS), 50 μl of the cell suspensions was applied to freshly poly-L-Lysine coated slides, and cells were allowed to adhere for 10 min in a humid chamber. Fixation and permeabilization were performed at −20° C. by using a 4 min exposure to methanol. Jurkat's cells were treated in the same manner as a control.
Slides were then washed twice in PBS and blocked in 10% fetaplex serum (Gemini Bioproducts, West Sacramento, Calif.) in PBS for 15 min and washed once in PBS. The detection reagent, Streptavidin AlexaFluor 610 (Invitrogen, Carlsbad, Calif.) was diluted 1/500 in diluent, 100 μl was applied; a parafilm cover slip was layered over the solution to prevent evaporation. The slides were incubated in a humid chamber for 30 min., washed 5 times for 5 min each in PBS, and rinsed briefly in double distilled H2O. After the slides dried, cover slips were mounted with ProlongGold with 4′,6-diamidino-2-phenylindole (DAPI, Invitrogen, Carlsbad, Calif.). The slides were viewed with an Olympus FV1000 laser scanning confocal microscope and data were collected as Z-scans at 160×, with focal sections being taken 1 μm apart through the cell.

Raji xenografts [1] = assay: Efficacy in mice with Raji xenografts; format: in vivo, athymic Balb/c nu/nu mice
From the text: Seven- to nine-week old female, athymic Balb/c nu/nu mice (Harlan Sprague Dawley, Inc., Frederick, Md.) were maintained according to University of California animal care guidelines under pathogen-free conditions and on a normal ad libitum diet. Raji or Jurkat's cells harvested in log phase and having >95% viability were implanted (6×10^6 cells) subcutaneously in the lower abdomen 3-4 days after the mice were irradiated (400 cGy) to suppress xenograft rejection. When xenografts reached 20-500 mm3 by caliper measurement, the mice were sorted by xenograft volume into 4 groups: SHAL-treated mice with Raji xenografts, SHAL-treated mice with Jurkat's xenografts, untreated mice with Raji xenografts or untreated mice with Jurkat's xenografts. Each mouse was injected with 100 μl of PBS or 100 ng DOTA-chelated tridentate SHAL i.p. on days 0, 7 and 14. Xenograft volume and survival were monitored for ≥84 days. The mice were also weighed 2-3 times each week for 4 weeks then weekly. Blood counts were measured prior to each SHAL or PBS dose and weekly for 4 weeks after the final dose using a Z Series Coulter Counter (Beckman Coulter Inc., Hialeah, Fla.) and a phase contrast microscope (Zeiss, Jena, Germany).
Xenograft volumes were calculated by the formula for hemiellipsoids (DeNardo et al. (1997) Clin. Cancer Res. 3: 71-79). […] If a xenograft became >2000 mm3, the mouse was euthanized in accordance with University of California animal care guidelines and scored as a disease-related death.
Initial analysis compared response rates by exact tests and survival times by log-rank tests for untreated Raji and Jurkat's mice and found no significant differences, so these groups were pooled for subsequent analysis. Response rates for treated Raji, treated Jurkat's and untreated mice were compared by x^2 and exact tests. Survival times were censored at 84 days for mice who had not died or been euthanized because of tumor growth before that time. Times were summarized descriptively by Kaplan-Meier curves and median survival and 95% confidence limits were obtained by the product-limit estimate. The two treated groups were compared to the untreated using a log-rank test for homogeneity across groups, followed by a proportional hazards model to estimate the effect of treatment compared to no treatment. Analyses were carried out using SAS/SAT® software (SAS Institute, Inc. SAS/STAT Version 9.0. 2004. Cary, N.C.: SAS Institute). All tests were two-sided at level 0.05.

[2] = General safety study in healthy mice; format: in vivo; conditions: 4 weeks; for adverse effects / toxicity: up to 2000 times the efficacy dose i.p.
Experimental: Each of 3 groups of 7 healthy Balb/c mice were given PBS, 20 or 200 μg of DOTA-chelated SHAL i.p., that is, 200 or 2,000 times the SHAL efficacy dose. Immediately prior to intervention, the mice were observed, weighed and blood counts (red, white and platelets) obtained, then the mice were observed daily, weighed 3 times each week and blood counts measured weekly for 4 weeks after intervention.

Raji xenografts [3] = assay: Electron microscopy of Raji xenografts after SHAL treatment; format: in vivo, mice; conditions: after 100 ng of biotinylated SHAL
Experimental: Raji xenografts (53-132 mm^3) were harvested for EM from mice, untreated (control) and 2, 4 or 24 h after 100 ng of biotinylated SHAL.

Compound	SHAL binding, uptake and localization in Raji cells (Raji cells)	SHAL binding, uptake and localization in Raji cells (Raji cells; listed as hexa-arginine SHAL)	SHAL binding, uptake and localization in Raji cells (Raji cells; listed as hexa-arginine SHAL analog)	SHAL binding, uptake and localization in Raji cells (Raji cells; listed as hexa-arginine analog)	ORR (overall response rate) (Raji xenografts [1]; 100 ng DOTA-chelated tridentate SHAL i.p. days 0, 7 and 14)	Cure (Raji xenografts [1]; 100 ng DOTA-chelated tridentate SHAL i.p. days 0, 7 and 14, censored at 84 days)	overall survival (FIG. 31) (Raji xenografts [1]; 100 ng SHAL i.p. once weekly for 3 consecutive weeks)	median survival time (Raji xenografts [1]; 100 ng SHAL i.p. weekly x3, censored at 84 days)	xenograft response in one mouse (FIG. 30) (Raji xenografts [1]; by three weeks after the initial 100 ng dose i.p.)	persistence of cures (Raji xenografts [1]; cures at 84 days)	reduction in hazard of death (Raji xenografts [1]; treated Raji mice compared to untreated and treated Jurkat's mice, proportional hazards model)	time at which regression began after initial SHAL treatment (Raji xenografts [1]; treated Raji xenografts)	time to complete remission after initial SHAL treatment (Raji xenografts [1]; treated Raji xenografts)	body weight ([2]; 20 or 200 μg DOTA-chelated SHAL i.p. (200 or 2,000 times efficacy dose))	blood counts ([2]; 20 or 200 μg DOTA-chelated SHAL i.p.)	adverse effects / toxicity [2]	adverse effects / toxicity ([2]; listed as SHAL)	electron microscopy findings in xenograft cells (Raji xenografts [3])	electron microscopy findings in xenograft cells (Raji xenografts [3]; listed as SHAL)
CC(=O)NC(CCCNC(=N)N)C(=O)NC(CCCNC(=N)N)C(=O)NC(CCCNC(=N)N)C(=O)NC(CCCNC(=N)N)C(=O)NC(CCCNC(=N)N)C(=O)NC(CCCNC(=N)N)C(=O)NCCCCC(NC(=O)C(CCCCNC(=O)COCCOCCNC(=O)COCCOCCNC(=O)COCCOCCNC(=O)C(CCCCNC(=O)COCCOCCNC(=O)c1ccc(NC(=O)C(CCCNC(=N)N)NC(=O)c2ccccc2)cc1)NC(=O)C(NS(=O)(=O)c1ccc(N=Nc2ccc(N(C)C)cc2)cc1)C(C)C)NC(=O)COCCOCCNC(=O)COCCOCCNC(=O)COCCOCCNC(=O)C(CCCCNC(=O)COCCOCCNC(=O)c1ccc(NC(=O)C(CCCNC(=N)N)NC(=O)c2ccccc2)cc1)NC(=O)C(NS(=O)(=O)c1ccc(N=Nc2ccc(N(C)C)cc2)cc1)C(C)C)C(=O)NC(CCCCNC(=O)CN1CCN(CC(=O)O)CCN(CC(=O)O)CCN(CC(=O)O)CC1)C(=O)O (stereo not shown) [(DvLPBaPPP)2LArg6AcLLDo]	internalized	localized in the nucleus; also recorded: significantly more; also recorded: associated with the nucleus	associated with the nucleus	marked cytoplasmic binding but also intranuclear targeting; also recorded: taken up and internalized	–	–	–	–	–	–	–	–	–	–	–	–	–	–	–
CC(C)C(NS(=O)(=O)c1ccc(N=Nc2ccc(N(C)C)cc2)cc1)C(=O)NCCOCCOCC(=O)NC(CCCCNC(=O)C(CCCCNC(=O)CC(=O)Nc1ccccc1Oc1ncc(C(F)(F)F)cc1Cl)NC(=O)COCCOCCNC(=O)c1ccc(N2CCN(Cc3ccc(Cl)cc3)CC2)c([N+](=O)[O-])c1)C(=O)NCCOCCOCC(=O)NC(CCCCNC(=O)CN1CCN(CC(=O)O)CCN(CC(=O)O)CCN(CC(=O)O)CC1)C(=O)O (stereo not shown) [tridentate SHAL]	–	–	–	–	77%	69%	longest survival	not estimable	completely regressed	persisted over a 210-day observation time	85%	~7 days	~30 days	gained weight	stable blood counts	no evidence for toxicity; also recorded: did not exhibit signs of adverse events	no adverse effects	highly condensed nuclear chromatin and fragmented organelles	condensed and fragmented chromatin and loss of cytoplasmic structures consistent with autophagic death
